Experimental data published in patent publication US10618918B2, “Substituted boronic acids as antimicrobials” (priority 2015, dated 2020).
Where two headings read alike, the source gives them in different places.

Tests used:
KP1004 KPC-2 [1] = assay: Biapenem potentiation (MPC@1), strain KP1004 KPC-2; format: cell-based; details: for BPM MPC1 KP1004 KPC-2: minimum BLI concentration inhibiting growth with biapenem 1 μg/mL, tested up to 40 μg/mL
Protocol: (§1) Biapenem was present in the test medium at 1 μg/mL. […] Table 3 summarizes the BLI potency of biapenem potentiation (MPC@1) for two strains overexpressing class A (KPC) and class D (OXA-48) carbapenemases. Biapenem MIC for each strain is also shown.

PAM1032/KPC-2 = assay: Biapenem potentiation MPC64 in PAM1032/KPC-2 (efflux proficient, overexpresses MexAB-OprM); format: cell-based, Pseudomonas aeruginosa; details: for PAM1032/KPC-2 Biapenem MPC64: BLI concentration decreasing biapenem MIC 64-fold, from 32 μg/ml to 0.5 μg/ml, efflux proficient strain
Protocol: (§2) Efflux of BLIs from Pseudomonas aeruginosa by the MexAB-OprM efflux pump was also evaluated. The plasmid expressing the gene encoding KPC-2 was introduced into two strains of P. aeruginosa, PAM1032 and PAM 1154 that overexpressed or lacked MexAB-OprM, respectively. […] Potency of BLIs to potentiate biapenem in these strains was determined.

PAM1154/KPC-2 = assay: Biapenem potentiation MPC64 in PAM1154/KPC-2 (efflux deficient, lacks MexAB-OprM); format: cell-based, Pseudomonas aeruginosa; details: for PAM1154/KPC-2 Biapenem MPC64: BLI concentration decreasing biapenem MIC 64-fold, from 32 μg/ml to 0.5 μg/ml, efflux deficient strain
Protocol: as §2

KP1086 OXA-48 = assay: Biapenem potentiation (MPC@1), strain KP1086 OXA-48; format: cell-based; details: for BPM MPC1 OXA-48 KP1086: minimum BLI concentration inhibiting growth with biapenem 1 μg/mL, tested up to 40 μg/mL
Protocol: as §1

ec308 SHV-5 = assay: Aztreonam potentiation (MPC@4), strain ec308 SHV-5; details: minimum BLI concentration inhibiting growth with aztreonam 4 μg/mL; tested up to 40 μg/mL
EC1010 CMY-6 = assay: Aztreonam potentiation (MPC@4), strain EC1010 CMY-6; details: minimum BLI concentration inhibiting growth with aztreonam 4 μg/mL; tested up to 40 μg/mL
[2] = biological target: purified class A, C and D enzymes (β-lactamases) (Escherichia coli, UniProt Q9L5C7); assay: biochemical; format: biochemical; details: purified CTX-M-14; nitrocefin (NCF) as reporter substrate
[3] = biological target: purified class A, C and D enzymes (β-lactamases) (Klebsiella pneumoniae, UniProt Q6XEC0); assay: biochemical; format: biochemical; details: purified OXA-48; nitrocefin (NCF) as reporter substrate
[4] = biological target: purified class A, C and D enzymes (β-lactamases) (Klebsiella pneumoniae, UniProt Q9F663); assay: biochemical; format: biochemical; details: purified KPC-2; nitrocefin (NCF) as reporter substrate
[5] = biological target: T1, purified class A, C and D enzymes (β-lactamases) (UniProt P0AD64, L31Q/G234S/E235K, species not given); assay: biochemical; format: biochemical
T1 construct: Ki (SHV-12, NCF), uM; other: purified SHV-12; nitrocefin (NCF) as reporter substrate
T1 sequence (P0AD64 1-286 L31Q/G234S/E235K): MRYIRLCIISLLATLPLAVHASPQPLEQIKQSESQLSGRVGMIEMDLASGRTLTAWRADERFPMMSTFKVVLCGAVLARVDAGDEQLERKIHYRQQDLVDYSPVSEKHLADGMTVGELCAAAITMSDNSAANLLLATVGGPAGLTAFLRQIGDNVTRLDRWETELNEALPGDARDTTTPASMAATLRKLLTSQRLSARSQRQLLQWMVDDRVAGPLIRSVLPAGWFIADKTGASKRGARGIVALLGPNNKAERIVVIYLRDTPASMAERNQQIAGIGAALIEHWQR

[6] = biological target: purified class A, C and D enzymes (β-lactamases) (Enterobacter cloacae, UniProt P05364); assay: biochemical; format: biochemical
ec302 TEM-10 = assay: Aztreonam potentiation (MPC@4), strain ec302 TEM-10; details: minimum BLI concentration inhibiting growth with aztreonam 4 μg/mL; tested up to 40 μg/mL
KP1004 KPC-2 [7] = assay: Aztreonam potentiation (MPC@4), strain KP1004 KPC-2; details: minimum BLI concentration inhibiting growth with aztreonam 4 μg/mL; tested up to 40 μg/mL
KP1009 CTX-M-15 = assay: Aztreonam potentiation (MPC@4), strain KP1009 CTX-M-15; details: minimum BLI concentration inhibiting growth with aztreonam 4 μg/mL; tested up to 40 μg/mL
KP1005 CTX-M-14 = assay: Tigemonam potentiation (MPC@4), strain KP1005 CTX-M-14; details: minimum BLI concentration inhibiting growth with tigemonam 4 μg/mL; tested up to 40 μg/mL
ECL1002 = assay: Aztreonam potentiation (MPC@4), strain ECL1002; details: minimum BLI concentration inhibiting growth with aztreonam 4 μg/mL; tested up to 40 μg/mL
KP1010 SHV-12 = assay: Aztreonam potentiation (MPC@4), strain KP1010 SHV-12; details: minimum BLI concentration inhibiting growth with aztreonam 4 μg/mL; tested up to 40 μg/mL
AB1053 OXA-72 = assay: Meropenem potentiation (MPC@8), strain AB1053 OXA-72; format: cell-based, Acinetobacter baumannii; details: minimum BLI concentration inhibiting growth with meropenem 8 μg/mL; tested up to 20 μg/mL
AB1054 OXA-23 = assay: Meropenem potentiation (MPC@8), strain AB1054 OXA-23; format: cell-based, Acinetobacter baumannii; details: minimum BLI concentration inhibiting growth with meropenem 8 μg/mL; tested up to 20 μg/mL
[8] = biological target: T2, purified class A, C and D enzymes (β-lactamases) (Pseudomonas aeruginosa, UniProt P24735); assay: biochemical; format: biochemical
T2 construct: rows headed: Ki (Pa-AmpC, NCF), uM; other: purified Pa-AmpC; nitrocefin (NCF) as reporter substrate

[9] = biological target: T3, purified class A, C and D enzymes (β-lactamases) (Acinetobacter baumannii, UniProt Q9L4P2); assay: biochemical; format: biochemical; details: purified OXA-23; nitrocefin (NCF) as reporter substrate
T3 construct: rows headed: Ki (OXA-23, NCF), uM; other: purified OXA-23; nitrocefin (NCF) as reporter substrate

[10] = purified SHV-12; nitrocefin (NCF) as reporter substrate; read-out: Ki (SHV-12, NCF)
[11] = purified P99, nitrocefin (NCF) as reporter substrate
[12] = purified Pa-AmpC, nitrocefin (NCF) as reporter substrate, read-out: Ki (Pa-AmpC, NCF)

SMILES	AZT MPC4 SHV-5 ec308 (ec308 SHV-5)	AZT MPC4 CMY-6 EC1010 (EC1010 CMY-6)	BPM MPC1 KP1004 KPC-2 (KP1004 KPC-2 [1])	PAM1032/KPC-2 Biapenem MPC64 (PAM1032/KPC-2)	Ki (CTX-M-14, NCF), uM [2]	Ki (OXA-48, NCF), uM [3]	Ki (KPC-2, NCF), uM [4]	Ki [5, 10]	Ki (P99, NCF), uM [6, 11]	AZT MPC4 TEM-10 ec302 (ec302 TEM-10)	AZT MPC4 KPC-2 KP1004 (KP1004 KPC-2 [7])	AZT MPC4 CTX-M-15 KP1009 (KP1009 CTX-M-15)	TIG MPC4 CTX-M-14 KP1005 (KP1005 CTX-M-14)	AZT MPC4 ECL1002 (ECL1002)	PAM1154/KPC-2 Biapenem MPC64 (PAM1154/KPC-2)	BPM MPC1 OXA-48 KP1086 (KP1086 OXA-48)	AZT MPC4 SHV-12 KP1010 (KP1010 SHV-12)	MPM MPC8 AB1053 OXA-72 (AB1053 OXA-72)	MPM MPC8 AB1054 OXA-23 (AB1054 OXA-23)	Ki [9]	further results
C[C@@H](O)[C@H]1C(=O)N2C(C(=O)[O-])=C(SC3Cn4cnc[n+]4C3)[C@H](C)[C@H]12 (some centres unmarked) [Biapenem, reference compound]	–	–	–	–	–	–	–	–	–	–	–	–	–	–	–	–	–	–	–	–	MIC (KP1004 KPC-2 [1]; strain KP1004 KPC-2, biapenem alone): 32 µg/mL; MIC (PAM1032/KPC-2; Pseudomonas aeruginosa, P. aeruginosa PAM1032 expressing KPC-2, biapenem alone): 32 µg/mL; MIC (PAM1154/KPC-2; Pseudomonas aeruginosa, P. aeruginosa PAM1154 expressing KPC-2, biapenem alone): 32 µg/mL; MIC (KP1086 OXA-48; strain KP1086 OXA-48, biapenem alone): 16 µg/mL
O=C(O)c1cccc2c1OB(O)CN2S(=O)(=O)Cc1ccccc1 [Compound 4, 4-(BENZYLSULFONYL)-2-HYDROXY-3,4-DIHYDRO-2H-BENZO[E][1,4,2]OXAZABORININE-8-CARBOXYLIC ACID]	Z (Z = MPC@4 > 20 μg/mL)	Z (Z = MPC@4 > 20 μg/mL)	X (X = MPC@1 ≤ 5 μg/mL)	>80	X (X = Ki ≤ 0.1 μM)	X (X = Ki ≤ 0.1 μM)	X (X = Ki ≤ 0.1 μM)	< 100 nM	X (X = Ki ≤ 0.1 μM)	Z (Z = MPC@4 > 20 μg/mL)	Z (Z = MPC@4 > 20 μg/mL)	Z (Z = MPC@4 > 20 μg/mL)	Z (Z = MPC@4 > 20 μg/mL)	Z (Z = MPC@4 > 20 μg/mL)	5	Z (Z = MPC@1 > 20 μg/mL)	Z (Z = MPC@4 > 20 μg/mL)	–	–	–	–
O=C(Cc1cccs1)NC1CB(O)Oc2c(C(=O)O)cccc21 (centres unmarked) [Compound 1, 2-HYDROXY-4-(2-(THIOPHEN-2-YL)ACETAMIDO)-3,4-DIHYDRO-2H-BENZO[E][1,2]OXABORININE-8-CARBOXYLIC ACID]	X (X = MPC@4 ≤ 5 μg/mL)	X (X = MPC@4 ≤ 5 μg/mL)	X (X = MPC@1 ≤ 5 μg/mL)	40	X (X = Ki ≤ 0.1 μM)	X (X = Ki ≤ 0.1 μM)	X (X = Ki ≤ 0.1 μM)	< 100 nM	X (X = Ki ≤ 0.1 μM)	X (X = MPC@4 ≤ 5 μg/mL)	X (X = MPC@4 ≤ 5 μg/mL)	X (X = MPC@4 ≤ 5 μg/mL)	X (X = MPC@4 ≤ 5 μg/mL)	Y (Y = 5 μg/mL < MPC@4 ≤ 20 μg/mL)	2.5	Y (Y = 5 μg/mL < MPC@1 ≤ 20 μg/mL)	X (X = MPC@4 ≤ 5 μg/mL)	–	–	–	–
C#CCOc1ccc2c(c1C(=O)O)OB(O)CC2 [Compound 25, 2-Hydroxy-7-prop-2-ynoxy-3,4-dihydro-1,2-benzoxaborinine-8-carboxylic acid]	X (X = MPC@4 ≤ 5 μg/mL)	X (X = MPC@4 ≤ 5 μg/mL)	X (X = MPC@1 ≤ 5 μg/mL)	–	X (X = Ki ≤ 0.1 μM)	X (X = Ki ≤ 0.1 μM)	X (X = Ki ≤ 0.1 μM)	< 100 nM	X (X = Ki ≤ 0.1 μM)	X (X = MPC@4 ≤ 5 μg/mL)	X (X = MPC@4 ≤ 5 μg/mL)	X (X = MPC@4 ≤ 5 μg/mL)	Z (Z = MPC@4 > 20 μg/mL)	X (X = MPC@4 ≤ 5 μg/mL)	–	X (X = MPC@1 ≤ 5 μg/mL)	X (X = MPC@4 ≤ 5 μg/mL)	X (X = MPC@1 ≤ 5 μg/mL)	X (X = MPC@1 ≤ 5 μg/mL)	< 100 nM	Ki [8, 12]: < 100 nM
C[C@@H]1Cc2cccc(C(=O)[O-])c2O[B-]1(O)O.[Na+].[Na+] [Compound 10, Disodium; (3R)-4,4-dihydroxy-3-methyl-5-oxa-4-boranuidabicyclo[4.4.0]deca-1(6),7,9-triene-7-carboxylate]	Z (Z = MPC@4 > 20 μg/mL)	Z (Z = MPC@4 > 20 μg/mL)	X (X = MPC@1 ≤ 5 μg/mL)	–	X (X = Ki ≤ 0.1 μM)	X (X = Ki ≤ 0.1 μM)	X (X = Ki ≤ 0.1 μM)	–	–	Z (Z = MPC@4 > 20 μg/mL)	Y (Y = 5 μg/mL < MPC@4 ≤ 20 μg/mL)	Z (Z = MPC@4 > 20 μg/mL)	Z (Z = MPC@4 > 20 μg/mL)	Z (Z = MPC@4 > 20 μg/mL)	–	Y (Y = 5 μg/mL < MPC@1 ≤ 20 μg/mL)	Y (Y = 5 μg/mL < MPC@4 ≤ 20 μg/mL)	Z (Z = MPC@1 > 20 μg/mL)	Z (Z = MPC@1 > 20 μg/mL)	> 1000 nM	Ki [8]: < 100 nM; Ki ([5]; read-out: Ki (SHV-12, NCF); purified SHV-12; nitrocefin (NCF) as reporter substrate): 100 to 1000 nM; Ki (P99, NCF), uM [6]: Y (key: X = Ki ≤ 0.1 μM; Y = 0.1 μM < Ki ≤ 1 μM; Z = Ki > 1 μM)
C[C@H]1Cc2cccc(C(=O)O)c2O[B-]1(O)O [Compound 9, Disodium; (3S)-4,4-dihydroxy-3-methy-5-oxa-4-boranuidabicyclo[4.4.0]deca-1(6),7,9-triene-7-carboxylate]	Y (Y = 5 μg/mL < MPC@4 ≤ 20 μg/mL)	Y (Y = 5 μg/mL < MPC@4 ≤ 20 μg/mL)	X (X = MPC@1 ≤ 5 μg/mL)	–	X (X = Ki ≤ 0.1 μM)	X (X = Ki ≤ 0.1 μM)	X (X = Ki ≤ 0.1 μM)	100 to 1000 nM	X (X = Ki ≤ 0.1 μM)	Z (Z = MPC@4 > 20 μg/mL)	X (X = MPC@4 ≤ 5 μg/mL)	Z (Z = MPC@4 > 20 μg/mL)	Z (Z = MPC@4 > 20 μg/mL)	Y (Y = 5 μg/mL < MPC@4 ≤ 20 μg/mL)	–	X (X = MPC@1 ≤ 5 μg/mL)	Y (Y = 5 μg/mL < MPC@4 ≤ 20 μg/mL)	Z (Z = MPC@1 > 20 μg/mL)	Z (Z = MPC@1 > 20 μg/mL)	100 to 1000 nM	Ki [8, 12]: < 100 nM
